This is an account of results in patent US20250222146A1, “Radiopharmaceuticals Targeting Somatostatin Receptor 2 and Uses Thereof” (RayzeBio, Inc., priority 2023, published 2025).

Like-named read-outs stand apart in the source and are kept apart here. Numbered stars: 1 amine (or outer) side, 2 acyl side, 3 side chain; on linkers, the order of the positions; unused ones are H or OH. Square brackets hold non-standard residues; d marks the D form. Peptide text beside a SMILES is read from it. * marks the point of attachment. ξ: configuration not given here. DOTA(Lu)NH(CH2)6NHCOCH2 = O=C(CN1CCN2CCN3CCN(CC1)CC(=O)[O][Lu]([O]C(=O)C2)[O]C(=O)C3)NCCCCCCNC(=O)C*; X6 = O=C(CN1CCN2CCN3CCN(CC1)CC(=O)[O][Lu]([O]C(=O)C2)[O]C(=O)C3)NCCOCCOCCOCCNC(=O)C*; dTrp(βS-Me) = C[C@@H](c1c[nH]c2ccccc12)[C@@H](N)C(=O)O; X4 = C[C@@H](c1ccccc1)[C@H](N[*:1])C(=O)[*:2]; Phe(3R-Me) = C[C@H](c1ccccc1)[C@H](N)C(=O)O; X20 = CN(C[C@H](N[*:1])C(=O)[*:2])c1ccccc1; X22 = O=C([C@H](Cc1ccc(O)nc1)N[*:1])[*:2]; dNMeW = CN[C@H](Cc1c[nH]c2ccccc12)C(=O)O; Dip = N[C@H](C(=O)O)C(c1ccccc1)c1ccccc1; Gly(cPent) = N[C@H](C(=O)O)C1CCCC1; NMeF = CN[C@@H](Cc1ccccc1)C(=O)O; 3Pal = N[C@@H](Cc1cccnc1)C(=O)O; 4Pal = N[C@@H](Cc1ccncc1)C(=O)O; Gly(cBu) = N[C@H](C(=O)O)C1CCC1; ξThr(3R) = C[C@@H](O)C(N)C(=O)O; Cha = N[C@@H](CC1CCCCC1)C(=O)O; NMehCys = CN[C@@H](CCS)C(=O)O; Cba = N[C@@H](CC1CCC1)C(=O)O; NMeK = CN[C@@H](CCCCN)C(=O)O

The term Ki denotes a measure of affinity in units of concentration, obtained from inhibition or displacement.

The assay deals with SSTR2 (Homo sapiens, UniProt P30874). The assay is described as follows: SSTR binding affinity by radioligand binding competition assay ([125I]-Tyr11-Somatostatin, membrane extracts). The conditions noted are these: radioligand competition, [125I]-Tyr11-Somatostatin 0.1 nM, membrane extracts, Ki from IC50 by Cheng Prusoff.
Chain of SSTR2 (P30874 whole entry): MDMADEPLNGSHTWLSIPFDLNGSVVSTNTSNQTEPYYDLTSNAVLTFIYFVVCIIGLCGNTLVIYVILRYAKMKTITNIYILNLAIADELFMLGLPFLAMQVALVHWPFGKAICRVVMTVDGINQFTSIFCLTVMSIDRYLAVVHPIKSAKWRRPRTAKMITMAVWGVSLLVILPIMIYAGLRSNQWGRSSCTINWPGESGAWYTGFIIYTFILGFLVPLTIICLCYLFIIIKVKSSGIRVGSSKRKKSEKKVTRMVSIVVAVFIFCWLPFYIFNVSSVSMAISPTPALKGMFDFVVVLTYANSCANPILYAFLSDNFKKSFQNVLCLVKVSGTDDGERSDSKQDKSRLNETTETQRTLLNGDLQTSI

Turning to `C[C@@H](O)[C@@H]1NC(=O)[C@H](CCCCN)NC(=O)[C@@H](Cc2c[nH]c3ccccc23)NC(=O)[C@H](Cc2ccncc2)NC(=O)[C@H](CCSCC(=O)NCCCCCCNC(=O)CN2CCN3CCN4CCN(CC2)CC(=O)[O][Lu]([O]C(=O)C3)[O]C(=O)C4)N(C)C(=O)[C@H](Cc2cccnc2)NC1=O` [RB-0003445] (cyclo([3Pal][NMehCys](DOTA(Lu)NH(CH2)6NHCOCH2)[4Pal][dW]KT)), the inhibition constant Ki (read-out: SSTR2 Ki) was 3.33 to 10 nM.
Consider `C[C@@H](O)[C@@H]1NC(=O)[C@H](CCCCN)NC(=O)[C@@H](Cc2c[nH]c3ccccc23)NC(=O)[C@H](Cc2ccncc2)NC(=O)[C@H](CCSCC(=O)NCCCCCCNC(=O)CN2CCN3CCN4CCN(CC2)CC(=O)[O][Lu]([O]C(=O)C3)[O]C(=O)C4)N(C)C(=O)[C@H]([C@@H](C)c2ccccc2)NC1=O` [RB-0003447] (cyclo([4Pal][dW]KT[X4][NMehCys](DOTA(Lu)NH(CH2)6NHCOCH2))), for which the Ki (read-out: SSTR2 Ki) lay in the range of 3.33 to 10 nM.
On to `C[C@H](c1ccccc1)[C@@H]1NC(=O)[C@H]([C@@H](C)O)NC(=O)[C@H](CCCCN)NC(=O)[C@@H](Cc2c[nH]c3ccccc23)NC(=O)[C@H](Cc2ccncc2)NC(=O)[C@H](CCSCC(=O)NCCCCCCNC(=O)CN2CCN3CCN4CCN(CC2)CC(=O)[O][Lu]([O]C(=O)C3)[O]C(=O)C4)N(C)C1=O` [RB-0003449] (cyclo([4Pal][dW]KT[Phe(3R-Me)][NMehCys](DOTA(Lu)NH(CH2)6NHCOCH2))), for which the inhibition constant (Ki) (read-out: SSTR2 Ki) was 10 to 33.3 nM.
Regarding `C[C@@H](O)[C@@H]1NC(=O)[C@H](CCCCN)NC(=O)[C@@H](Cc2c[nH]c3ccccc23)NC(=O)[C@H](Cc2ccncc2)NC(=O)[C@H](CCSCC(=O)NCCCCCCNC(=O)CN2CCN3CCN4CCN(CC2)CC(=O)[O][Lu]([O]C(=O)C3)[O]C(=O)C4)N(C)C(=O)[C@H](Cc2ccc(O)nc2)NC1=O` [RB-0003451] (cyclo([4Pal][dW]KT[X22][NMehCys](DOTA(Lu)NH(CH2)6NHCOCH2))), the Ki (read-out: SSTR2 Ki) lay in the range of 3.33 to 10 nM.
In the case of `C[C@@H](O)[C@@H]1NC(=O)[C@H](CCCCN)N(C)C(=O)[C@@H](Cc2c[nH]c3ccccc23)N(C)C(=O)[C@H](Cc2ccc(O)cc2)NC(=O)[C@H](CCSCC(=O)NCCCCCCNC(=O)CN2CCN3CCN4CCN(CC2)CC(=O)[O][Lu]([O]C(=O)C3)[O]C(=O)C4)N(C)C(=O)[C@H](Cc2ccccc2)NC1=O` [RB-0003455] (cyclo(F[NMehCys](DOTA(Lu)NH(CH2)6NHCOCH2)Y[dNMeW][NMeK]T)), for the setting “read-out: SSTR2 Ki”, the inhibition constant Ki was under 1 nM.
Turning to `C[C@H](O)[C@@H]1NC(=O)[C@H](CCCCN)NC(=O)[C@@H](Cc2c[nH]c3ccccc23)NC(=O)[C@H](Cc2ccc(O)cc2)NC(=O)[C@H](CCSCC(=O)NCCCCCCNC(=O)CN2CCN3CCN4CCN(CC2)CC(=O)[O][Lu]([O]C(=O)C3)[O]C(=O)C4)N(C)C(=O)[C@H](Cc2ccccc2)NC1=O` [RB-0003464], the Ki (SSTR2 Ki) was under 1 nM.
Take `C[C@@H](O)[C@@H]1NC(=O)[C@H](CCCCN)NC(=O)[C@@H](Cc2c[nH]c3ccccc23)NC(=O)[C@H](Cc2ccc(O)cc2)NC(=O)[C@H](CCCSCC(=O)NCCCCCNC(=O)CN2CCN3CCN4CCN(CC2)CC(=O)[O][Lu]([O]C(=O)C3)[O]C(=O)C4)N(C)C(=O)[C@H](Cc2ccccc2)NC1=O` [RB-0003482]: where the note is “read-out: SSTR2 Ki”, the Ki was under 1 nM.
`C[C@@H](O)[C@@H]1NC(=O)[C@H](CCCCN)NC(=O)[C@@H](Cc2c[nH]c3ccccc23)NC(=O)[C@H](Cc2ccc(O)cc2)NC(=O)[C@H](CCCSCC(=O)NCCCCCCNC(=O)CN2CCN3CCN4CCN(CC2)CC(=O)[O][Lu]([O]C(=O)C3)[O]C(=O)C4)N(C)C(=O)[C@H](Cc2ccccc2)NC1=O` [RB-0003484]: the Ki (read-out: SSTR2 Ki) is under 1 nM.
As for `C[C@@H](O)[C@@H]1NC(=O)[C@H](CCCCN)NC(=O)[C@@H](Cc2c[nH]c3ccccc23)NC(=O)[C@H](Cc2ccc(O)cc2)NC(=O)[C@H](CCCSCC(=O)NCCOCCNC(=O)CN2CCN3CCN4CCN(CC2)CC(=O)[O][Lu]([O]C(=O)C3)[O]C(=O)C4)N(C)C(=O)[C@H](Cc2ccccc2)NC1=O` [RB-0003486], under “read-out: SSTR2 Ki”, the inhibition constant Ki is under 1 nM.
On the same count and under the same terms, in the case of `C[C@@H](O)[C@@H]1NC(=O)[C@H](CCCCN)NC(=O)[C@@H](Cc2c[nH]c3ccccc23)NC(=O)[C@H](Cc2ccncc2)NC(=O)[C@H](CCSCC(=O)NCCOCCOCCOCCNC(=O)CN2CCN3CCN4CCN(CC2)CC(=O)[O][Lu]([O]C(=O)C3)[O]C(=O)C4)N(C)C(=O)[C@H](Cc2ccccc2)NC1=O` [RB-0003504] (cyclo([4Pal][dW]KTF[NMehCys](X6))) it was 1 to 3.33 nM; in that of `C[C@@H](O)[C@@H]1NC(=O)[C@H](CCCCN)NC(=O)[C@@H](Cc2c[nH]c3ccccc23)NC(=O)[C@H](Cc2ccc(O)cc2)NC(=O)[C@H](CCCCCNC(=O)CN2CCN3CCN4CCN(CC2)CC(=O)[O][Lu]([O]C(=O)C3)[O]C(=O)C4)N(C)C(=O)[C@H](Cc2ccccc2)NC1=O` [RB-0004536], under 1 nM; in that of `C[C@@H](O)C1NC(=O)[C@H](CCCCN)N(C)C(=O)[C@@H](Cc2c[nH]c3ccccc23)N(C)C(=O)[C@H](Cc2ccc(O)cc2)NC(=O)[C@H](CCSCC(=O)NCCCCCCNC(=O)CN2CCN3CCN4CCN(CC2)CC(=O)[O][Lu]([O]C(=O)C3)[O]C(=O)C4)N(C)C(=O)[C@H](Cc2ccccc2)N(C)C1=O` (stereo partly drawn) [RB-0004538] (cyclo([NMeF][NMehCys](DOTA(Lu)NH(CH2)6NHCOCH2)Y[dNMeW][NMeK][ξThr(3R)])), 3.33 to 10 nM.
The same measure, in the same setting: under `CN1C(=O)[C@H](Cc2ccccc2)NC(=O)[C@H](C2CCC2)NC(=O)[C@H](CCCCN)NC(=O)[C@@H](Cc2c[nH]c3ccccc23)NC(=O)[C@H](Cc2ccc(O)cc2)NC(=O)[C@@H]1CCSCC(=O)NCCCCCCNC(=O)CN1CCN2CCN3CCN(CC1)CC(=O)[O][Lu]([O]C(=O)C2)[O]C(=O)C3` [RB-0004540] (cyclo(F[NMehCys](DOTA(Lu)NH(CH2)6NHCOCH2)Y[dW]K[Gly(cBu)])) stands under 1 nM; under `CC(C)[C@@H]1NC(=O)[C@H](CCCCN)NC(=O)[C@@H]([C@@H](C)c2c[nH]c3ccccc23)NC(=O)[C@H](Cc2ccc(O)cc2)NC(=O)[C@H](CCSCC(=O)NCCCCCCNC(=O)CN2CCN3CCN4CCN(CC2)CC(=O)[O][Lu]([O]C(=O)C3)[O]C(=O)C4)N(C)C(=O)[C@H](Cc2ccccc2)NC1=O` [RB-0004609] (cyclo(F[NMehCys](DOTA(Lu)NH(CH2)6NHCOCH2)Y[dTrp(βS-Me)]KV)), under 1 nM; under `CC(C)[C@@H]1NC(=O)[C@H](CCCCN)N(C)C(=O)[C@@H](Cc2c[nH]c3ccccc23)N(C)C(=O)[C@H](Cc2ccc(O)cc2)NC(=O)[C@H](CCSCC(=O)NCCCCCCNC(=O)CN2CCN3CCN4CCN(CC2)CC(=O)[O][Lu]([O]C(=O)C3)[O]C(=O)C4)N(C)C(=O)[C@H](Cc2ccccc2)NC1=O` [RB-0004611] (cyclo(F[NMehCys](DOTA(Lu)NH(CH2)6NHCOCH2)Y[dNMeW][NMeK]V)), under 1 nM.
Still for that read-out and setting: in the case of `CC(C)[C@@H]1NC(=O)[C@H](CCCCN)NC(=O)[C@@H](Cc2c[nH]c3ccccc23)NC(=O)[C@H](C(c2ccccc2)c2ccccc2)NC(=O)[C@H](CCSCC(=O)NCCCCCCNC(=O)CN2CCN3CCN4CCN(CC2)CC(=O)[O][Lu]([O]C(=O)C3)[O]C(=O)C4)N(C)C(=O)[C@H](Cc2ccccc2)NC1=O` [RB-0004613] (cyclo([Dip][dW]KVF[NMehCys](DOTA(Lu)NH(CH2)6NHCOCH2))) it was under 1 nM; in that of `CC(C)[C@@H]1NC(=O)[C@H](CCCCN)NC(=O)[C@@H](Cc2c[nH]c3ccccc23)NC(=O)[C@H](Cc2ccc(O)cc2)NC(=O)[C@H](CCSCC(=O)NCCCCCCNC(=O)CN2CCN3CCN4CCN(CC2)CC(=O)[O][Lu]([O]C(=O)C3)[O]C(=O)C4)N(C)C(=O)[C@H](CN(C)c2ccccc2)NC1=O` [RB-0004615] (cyclo(KV[X20][NMehCys](DOTA(Lu)NH(CH2)6NHCOCH2)Y[dW])), under 1 nM; in that of `CC(C)[C@@H]1NC(=O)[C@H](CCCCN)NC(=O)[C@@H](Cc2c[nH]c3ccccc23)NC(=O)[C@H](Cc2ccc(O)cc2)NC(=O)[C@H](CCSCC(=O)NCCCCCCNC(=O)CN2CCN3CCN4CCN(CC2)CC(=O)[O][Lu]([O]C(=O)C3)[O]C(=O)C4)N(C)C(=O)[C@H](CC2CCCCC2)NC1=O` [RB-0004617] (cyclo([Cha][NMehCys](DOTA(Lu)NH(CH2)6NHCOCH2)Y[dW]KV)), 1 to 3.33 nM.
On to `CO[C@H](C)[C@@H]1NC(=O)[C@H](CCCCN)NC(=O)[C@@H](Cc2c[nH]c3ccccc23)NC(=O)[C@H](Cc2ccc(O)cc2)NC(=O)[C@H](CCSCC(=O)NCCCCCCNC(=O)CN2CCN3CCN4CCN(CC2)CC(=O)[O][Lu]([O]C(=O)C3)[O]C(=O)C4)N(C)C(=O)[C@H](Cc2ccccc2)NC1=O` [RB-0004619], for which, for the setting “read-out: SSTR2 Ki”, the Ki was under 1 nM.
As to `CN1C(=O)[C@H](Cc2ccccc2)NC(=O)[C@H](CC2CCC2)NC(=O)[C@H](CCCCN)NC(=O)[C@@H](Cc2c[nH]c3ccccc23)NC(=O)[C@H](Cc2ccc(O)cc2)NC(=O)[C@@H]1CCSCC(=O)NCCCCCCNC(=O)CN1CCN2CCN3CCN(CC1)CC(=O)[O][Lu]([O]C(=O)C2)[O]C(=O)C3` [RB-0004621] (cyclo([Cba]F[NMehCys](DOTA(Lu)NH(CH2)6NHCOCH2)Y[dW]K)), the Ki (read-out: SSTR2 Ki) was under 1 nM.
Same read-out and setting: in the case of `CN1C(=O)[C@H](Cc2ccccc2)NC(=O)[C@H](C2CCCC2)NC(=O)[C@H](CCCCN)NC(=O)[C@@H](Cc2c[nH]c3ccccc23)NC(=O)[C@H](Cc2ccc(O)cc2)NC(=O)[C@@H]1CCSCC(=O)NCCCCCCNC(=O)CN1CCN2CCN3CCN(CC1)CC(=O)[O][Lu]([O]C(=O)C2)[O]C(=O)C3` [RB-0004623] (cyclo(F[NMehCys](DOTA(Lu)NH(CH2)6NHCOCH2)Y[dW]K[Gly(cPent)])) it was under 1 nM; in that of `C[C@@H](O)[C@@H]1NC(=O)[C@H](CCCCN)NC(=O)[C@@H](Cc2c[nH]c3ccccc23)NC(=O)[C@H](Cc2ccc(O)cc2)NC(=O)[C@H](CCSCC(=O)NCCCCCCNC(=O)CN2CCN3CCN4CCN(CC2)CC(=O)[O][Lu]([O]C(=O)C3)[O]C(=O)C4)N(C)C(=O)CNC1=O` [RB-0004819] (cyclo(G[NMehCys](DOTA(Lu)NH(CH2)6NHCOCH2)Y[dW]KT)), under 1 nM.
